Source: PubChem BioAssay AID248 (DTP/NCI, 2004)
Toxic doses and inconclusive results are not listed. Rule as the data show it: active = T/C of 150% or more; inactive = T/C below 125%.

Test system: L1210 leukemia ip in BDF1 mice, survival T/C
Assay: NCI In Vivo Anticancer Drug Screen. Data for tumor model L1210 Leukemia (intraperitoneal) in B6D2F1 (BDF1) mice
Conditions: endpoint: mean survival time, higher = longer survival
In short: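 Each compound was tested against a transplantable tumor grown in mice. The endpoint was survival, with treated animals benchmarked against vehicle controls as a simple ratio.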

[1] = dose: 100.0 mg/kg/injection, schedule: Q01DX009 (ip), vehicle: Klucel (hydroxypropylcellulose) (HPC)
[2] = dose: 100.0 mg/kg/injection, schedule: Q04DX003 (ip), vehicle: Klucel (hydroxypropylcellulose) (HPC)
[3] = dose: 200.0 mg/kg/injection, schedule: Q01DX009 (ip), vehicle: Klucel (hydroxypropylcellulose) (HPC)
[4] = dose: 200.0 mg/kg/injection, schedule: Q04DX003 (ip), vehicle: Klucel (hydroxypropylcellulose) (HPC)
[5] = dose: 400.0 mg/kg/injection, schedule: Q01DX009 (ip), vehicle: Klucel (hydroxypropylcellulose) (HPC)
[6] = dose: 400.0 mg/kg/injection, schedule: Q04DX003 (ip), vehicle: Klucel (hydroxypropylcellulose) (HPC)
[7] = dose: 50.0 mg/kg/injection, schedule: Q04DX002 (ip), vehicle: Klucel (hydroxypropylcellulose) (HPC)
[8] = dose: 100.0 mg/kg/injection, schedule: Q04DX002 (ip), vehicle: Klucel (hydroxypropylcellulose) (HPC)
[9] = dose: 200.0 mg/kg/injection, schedule: Q04DX002 (ip), vehicle: Klucel (hydroxypropylcellulose) (HPC)
[10] = dose: 100.0 mg/kg/injection, schedule: Q04DX003 (ip), vehicle: saline
[11] = dose: 200.0 mg/kg/injection, schedule: Q04DX003 (ip), vehicle: saline
[12] = dose: 100.0 mg/kg/injection, schedule: Q04DX003 (ip), vehicle: saline with Tween-80

Measured: T/C

CN1CCS(=O)(=O)C1=O
inactive: dose: 9.5 mg/kg/injection, schedule: Q01DX001 (ip), vehicle: saline 98 % of control | dose: 19.0 mg/kg/injection, schedule: Q01DX001 (ip), vehicle: saline 98 % of control | dose: 38.0 mg/kg/injection, schedule: Q01DX001 (ip), vehicle: saline 109 % of control

COC1=C(N2CC2)C(=O)C(OC)=C(N2CC2)C1=O
inactive: dose: 0.5 mg/kg/injection, schedule: Q01DX009 (ip), vehicle: carboxymethylcellulose (CMC) 114 % of control | dose: 1.0 mg/kg/injection, schedule: Q01DX009 (ip), vehicle: carboxymethylcellulose (CMC) 124 % of control | dose: 3.0 mg/kg/injection, schedule: Q01DX009 (ip), vehicle: carboxymethylcellulose (CMC) 121 % of control

Clc1ccc(N=Nc2ccccc2)cc1
inactive: [1] 98 % of control | [2] 95 % of control | [3] 91 % of control | [4] 101 % of control | [5] 96 % of control | [6] 105 % of control

NNC(=O)c1c[nH]c2ccccc2c1=O
inactive: dose: 12.5 mg/kg/injection, schedule: Q01DX009 (ip), vehicle: Klucel (hydroxypropylcellulose) (HPC) 95 % of control | dose: 25.0 mg/kg/injection, schedule: Q01DX009 (ip), vehicle: Klucel (hydroxypropylcellulose) (HPC) 90 % of control | dose: 50.0 mg/kg/injection, schedule: Q01DX009 (ip), vehicle: Klucel (hydroxypropylcellulose) (HPC) 94 % of control

CCCCn1cc(COCC)c(=O)[nH]c1=O
inactive: [7] 98 % of control | [8] 102 % of control | [9] 98 % of control

CCOC(=O)NC(C)(C)CN(C(=O)OCC)C(C)(C)CO
inactive: [10] 104 % of control | [11] 104 % of control

Cc1cccc(C)c1NC(=O)Nc1cccc(Cl)c1
inactive: [1] 93 % of control | [2] 94 % of control | [3] 93 % of control | [4] 89 % of control | [5] 92 % of control | [6] 89 % of control

CC1(C)OCC(C(OC(=O)c2ccccc2)C(OC2CCCCO2)C2COC(C)(C)O2)O1 (configuration not stated)
inactive: [2] 94 % of control | [4] 96 % of control | [6] 94 % of control

CC(=O)NC1C(NC(=O)C(CC(=O)O)NC(=O)OCc2ccccc2)OC(COC(C)=O)C(OC(C)=O)C1OC(C)=O (configuration not stated)
inactive: [7] 94 % of control | [8] 91 % of control

COC(=O)CCCc1ccc(N(CCO)CCF)cc1
inactive: dose: 25.0 mg/kg/injection, schedule: Q01DX001 (ip), vehicle: carboxymethylcellulose (CMC) 103 % of control | dose: 50.0 mg/kg/injection, schedule: Q01DX001 (ip), vehicle: carboxymethylcellulose (CMC) 114 % of control | dose: 100.0 mg/kg/injection, schedule: Q01DX001 (ip), vehicle: carboxymethylcellulose (CMC) 101 % of control | dose: 200.0 mg/kg/injection, schedule: Q01DX001 (ip), vehicle: carboxymethylcellulose (CMC) 106 % of control

Cc1nn(C)c(C#N)c1[N+](=O)[O-]
inactive: [2] 98 % of control | [4] 100 % of control

O=C(NCCNCc1ccccc1)c1ccccc1
inactive: dose: 25.0 mg/kg/injection, schedule: Q01DX009 (ip), vehicle: water 97 % of control | dose: 25.0 mg/kg/injection, schedule: Q04DX003 (ip), vehicle: water 96 % of control | dose: 50.0 mg/kg/injection, schedule: Q01DX009 (ip), vehicle: water 98 % of control | dose: 50.0 mg/kg/injection, schedule: Q04DX003 (ip), vehicle: water 107 % of control | [12] 108 % of control | dose: 100.0 mg/kg/injection, schedule: Q04DX003 (ip), vehicle: water 92 % of control

O=C(O)c1cc(Br)ccc1O
inactive: [8] 98 % of control | [9] 98 % of control | dose: 400.0 mg/kg/injection, schedule: Q04DX002 (ip), vehicle: Klucel (hydroxypropylcellulose) (HPC) 102 % of control

CC(=O)O[C@H]1CC[C@H]2[C@@H]3CC[C@H]4C[C@@H]5[C@H](C[C@]4(C)[C@H]3CC[C@]12C)C5(F)F
inactive: dose: 50.0 mg/kg/injection, schedule: Q01DX001 (sc), vehicle: steriod suspending solution 102 % of control | dose: 50.0 mg/kg/injection, schedule: Q01DX009 (sc), vehicle: steriod suspending solution 103 % of control | dose: 100.0 mg/kg/injection, schedule: Q01DX001 (sc), vehicle: steriod suspending solution 101 % of control | dose: 100.0 mg/kg/injection, schedule: Q01DX009 (sc), vehicle: steriod suspending solution 105 % of control | dose: 200.0 mg/kg/injection, schedule: Q01DX001 (sc), vehicle: steriod suspending solution 98 % of control | dose: 200.0 mg/kg/injection, schedule: Q01DX009 (sc), vehicle: steriod suspending solution 102 % of control | dose: 400.0 mg/kg/injection, schedule: Q01DX001 (sc), vehicle: steriod suspending solution 101 % of control | dose: 400.0 mg/kg/injection, schedule: Q01DX009 (sc), vehicle: steriod suspending solution 102 % of control

CC1CCCCN1 (configuration not stated)
inactive: dose: 100.0 mg/kg/injection, schedule: Q04DX002 (ip), vehicle: saline 105 % of control | dose: 200.0 mg/kg/injection, schedule: Q04DX002 (ip), vehicle: saline 94 % of control | dose: 400.0 mg/kg/injection, schedule: Q04DX002 (ip), vehicle: saline 112 % of control

O=C(Nc1ccccc1)NS(=O)(=O)CS(=O)(=O)NC(=O)Nc1ccccc1
inactive: dose: 100.0 mg/kg/injection, schedule: Q01DX001 (ip), vehicle: saline 104 % of control | dose: 200.0 mg/kg/injection, schedule: Q01DX001 (ip), vehicle: saline 102 % of control | dose: 400.0 mg/kg/injection, schedule: Q01DX001 (ip), vehicle: saline 109 % of control

Cc1cc(C)c(-c2c(C)cc(C)c([N+](=O)[O-])c2C)c(C)c1N
inactive: dose: 75.0 mg/kg/injection, schedule: Q01DX009 (ip), vehicle: Klucel (hydroxypropylcellulose) (HPC) 100 % of control | dose: 75.0 mg/kg/injection, schedule: Q04DX003 (ip), vehicle: Klucel (hydroxypropylcellulose) (HPC) 98 % of control | dose: 150.0 mg/kg/injection, schedule: Q01DX009 (ip), vehicle: Klucel (hydroxypropylcellulose) (HPC) 105 % of control | dose: 150.0 mg/kg/injection, schedule: Q04DX003 (ip), vehicle: Klucel (hydroxypropylcellulose) (HPC) 101 % of control | dose: 300.0 mg/kg/injection, schedule: Q01DX009 (ip), vehicle: Klucel (hydroxypropylcellulose) (HPC) 100 % of control | dose: 300.0 mg/kg/injection, schedule: Q04DX003 (ip), vehicle: Klucel (hydroxypropylcellulose) (HPC) 93 % of control

CCCc1cc2c3c(c(=O)oc2cc1OCCN1CCCC1)CCCC3
inactive: dose: 37.5 mg/kg/injection, schedule: Q01DX001 (ip), vehicle: saline with Tween-80 92 % of control | dose: 37.5 mg/kg/injection, schedule: Q04DX003 (ip), vehicle: saline with Tween-80 96 % of control | dose: 75.0 mg/kg/injection, schedule: Q01DX001 (ip), vehicle: saline with Tween-80 94 % of control | dose: 75.0 mg/kg/injection, schedule: Q04DX003 (ip), vehicle: saline with Tween-80 100 % of control | dose: 150.0 mg/kg/injection, schedule: Q01DX001 (ip), vehicle: saline with Tween-80 100 % of control | dose: 150.0 mg/kg/injection, schedule: Q04DX003 (ip), vehicle: saline with Tween-80 98 % of control

O=C1N/C(=N\OCc2ccccc2)CC(NOCc2ccccc2)N1C1OC(CO)C(O)C1O (configuration not stated)
inactive: [10] 92 % of control | [11] 92 % of control

COc1cc(OC)c(C(=O)CCl)c(O)c1Cl
inactive: [12] 99 % of control | dose: 200.0 mg/kg/injection, schedule: Q04DX003 (ip), vehicle: saline with Tween-80 104 % of control | dose: 400.0 mg/kg/injection, schedule: Q04DX003 (ip), vehicle: saline with Tween-80 92 % of control
